From paper PMC10364322, “Evaluation of chronic drug-induced electrophysiological and cytotoxic effects using human-induced pluripotent stem cell-derived cardiomyocytes (hiPSC-CMs)” (Frontiers in Pharmacology, 2023)
Like-named read-outs stand apart in the source and are kept apart here.

Assays:
[1] = test system: hiPSC-CMs (iCell-Cardiomyocytes^2); test: MEA impedance (cytotoxicity readout) in hiPSC-CMs; details: for effect on impedance: all concentrations tested, up to 96 h
[2] = test system: hiPSC-CMs (iCell-Cardiomyocytes^2); test: ApoLive-Glo Multiplex Assay: viability (live cells); type: cell-based, human
Description: (§1) iCell-Cardiomyocytes^2 (Fujifilm Cellular Dynamics Inc., Madison, WI, United States) were seeded into 96 well-plates (Greiner Bio One, ref. 655946) according to the manufacturer instructions, at a density of 50 k cells/well. […] To assess effects on viability and cytotoxicity, two assay combination kits were used: 1) RealTime-Glo™ Annexin V Apoptosis and Necrosis Assay [Promega, JA1011 ([Kupcho et al., 2019])] and 2) ApoLive-Glo Multiplex Assay [Promega, G6410 ([Flörkemeier et al., 2022])]. The assays were performed according to manufacturer instructions. The experiments were repeated at 24, 48, and 72 h in order to assess any time-dependent change in live cells or activation of cell-death pathways.
(§2) The nonparametric Wilcoxon-Mann Whitney Test was used to compare the percent change from the baseline (Δ%) value between the group treated with the compound at a given concentration and the group treated with the DMSO at each matching time points. A two-sided test at 5% significance level was considered. […] To assess the physiological relevance of changes, a tolerance interval of DMSO experiments was calculated at each time point, for each parameter. Specifically, the Δ% values of all (pooled) DMSO wells (N = 81) were used to obtain the non-parametric 80%–95% (p = 0.80 & 1-α = 0.95) tolerance interval (TI). TIs indicate an interval where, with a certain confidence level (1- α = 0.95), a specified proportion (p = 0.80) of percent change for DMSO data falls. The lower and upper limits based on the TI values were used as cut-offs for the interpretation of the changes. For the cytotoxicity assays, measurements of fluorescence (after background fluorescence subtraction) from wells treated with the compounds were normalized by the average value of vehicle experiments (DMSO 0.1%) to obtain a DMSO-corrected, delta/delta percent change. Experiments from each condition, as delta/delta percent, were averaged and expressed as mean ± SD. Statistical analysis was performed using a non-parametric test (Kruskal-Wallis) and each treatment condition was compared to the relative DMSO 0.1%. Differences were considered statistically significant when the p-value was smaller than 0.05.

[3] = test system: caspases 3,7 in hiPSC-CMs; test: ApoLive-Glo Multiplex Assay: apoptosis, caspases 3,7 activation; type: cell-based, human
Description: as §1, §2

[4] = test system: Annexin V activation in hiPSC-CMs; type: cell-based
Description: The assays were performed according to manufacturer instructions.
as §2, with “Specifically, the Δ% values of all (pooled) DMSO wells (N = 81) were used to obtain the non-parametric 80%–95% (p = 0.80 & 1-α = 0.95) tolerance interval (TI).” left out

[5] = test system: hiPSC-CMs (iCell-Cardiomyocytes^2); test: RealTime-Glo Annexin V Apoptosis and Necrosis Assay: necrosis; type: cell-based, human
Description: as §1, §2

C[C@H](CS)C(=O)N1CCC[C@H]1C(=O)O [Captopril]
Imp (impedance), % change from baseline ([1]; 1 µM, 2h): 7±5%
Imp (impedance), % change from baseline ([1]; 1 µM, 24h): -7±1%
Imp (impedance), % change from baseline ([1]; 1 µM, 48h): -9±4%
Imp (impedance), % change from baseline ([1]; 1 µM, 72h): -2±3%
Imp (impedance), % change from baseline ([1]; 1 µM, 96h): -4±5%
Imp (impedance), % change from baseline ([1]; 3 µM, 72h): 1±4%
Imp (impedance), % change from baseline ([1]; 3 µM, 96h): -1±4%
Imp (impedance), % change from baseline ([1]; 3 µM, 2h): 9±3%
Imp (impedance), % change from baseline ([1]; 3 µM, 24h): -6±3%
Imp (impedance), % change from baseline ([1]; 3 µM, 48h): -7±4%
Imp (impedance), % change from baseline ([1]; 10 µM, 2h): 9±3%
Imp (impedance), % change from baseline ([1]; 10 µM, 24h): -5±3%
Imp (impedance), % change from baseline ([1]; 10 µM, 48h): -10±5%
Imp (impedance), % change from baseline ([1]; 10 µM, 72h): -1±5%
Imp (impedance), % change from baseline ([1]; 10 µM, 96h): -4±5%
Imp (impedance), % change from baseline ([1]; 30 µM, 2h): 8±2%
Imp (impedance), % change from baseline ([1]; 30 µM, 24h): -4±3%
Imp (impedance), % change from baseline ([1]; 30 µM, 48h): -8±2%
Imp (impedance), % change from baseline ([1]; 30 µM, 72h): 1±5%
Imp (impedance), % change from baseline ([1]; 30 µM, 96h): -4±6%
effect on impedance [1]: did not have a significant effect on impedance
Live Cells (viability), Mean±SD ([2]; 10 µM, 24h): -8.4±17.4 Δ/Δ%
Live Cells (viability), Mean±SD ([2]; 10 µM, 48h): -9.1±9.5 Δ/Δ%
Live Cells (viability), Mean±SD ([2]; 10 µM, 72h): 2.4±8.5 Δ/Δ%
number of live cells ([2]; any of the time points (24, 48, 72 h)): did not show any significant change in live cell number
Caspases 3, 7 (apoptosis activation), Mean±SD ([3]; 10 µM, 24h): -6.9±11.1 Δ/Δ%
Caspases 3, 7 (apoptosis activation), Mean±SD ([3]; 10 µM, 48h): -3±10.7 Δ/Δ%
Caspases 3, 7 (apoptosis activation), Mean±SD ([3]; 10 µM, 72h): -3.6±5 Δ/Δ%
apoptosis activation ([4]; 24, 48, 72 h): did not display any significant changes in necrosis or apoptosis activation
Necrosis, Mean±SD ([5]; 10 µM, 24h): 21.5±33.7 Δ/Δ%
Necrosis, Mean±SD ([5]; 10 µM, 48h): -8.1±21.1 Δ/Δ%
Necrosis, Mean±SD ([5]; 10 µM, 72h): 13.9±44.2 Δ/Δ%
necrosis activation ([5]; 24, 48, 72 h): did not display any significant changes in necrosis or apoptosis activation

CCN(CC)CCNC(=O)c1c(C)[nH]c(/C=C2\C(=O)Nc3ccc(F)cc32)c1C [Sunitinib]
Imp (impedance), % change from baseline ([1]; 0.03 µM, 2h): 5±4%
Imp (impedance), % change from baseline ([1]; 0.03 µM, 24h): -12±3%
Imp (impedance), % change from baseline ([1]; 0.03 µM, 48h): -8±6%
Imp (impedance), % change from baseline ([1]; 0.03 µM, 72h): -8±4%
Imp (impedance), % change from baseline ([1]; 0.03 µM, 96h): -4±4%
Imp (impedance), % change from baseline ([1]; 0.1 µM, 2h): 6±3%
Imp (impedance), % change from baseline ([1]; 0.1 µM, 24h): -10±4%
Imp (impedance), % change from baseline ([1]; 0.1 µM, 48h): -7±4%
Imp (impedance), % change from baseline ([1]; 0.1 µM, 72h): -5±3%
Imp (impedance), % change from baseline ([1]; 0.1 µM, 96h): -2±3%
Imp (impedance), % change from baseline ([1]; 0.3 µM, 2h): 5±6%
Imp (impedance), % change from baseline ([1]; 0.3 µM, 24h): -7±3%
Imp (impedance), % change from baseline ([1]; 0.3 µM, 48h): -3±5%
Imp (impedance), % change from baseline ([1]; 0.3 µM, 72h): -3±2%
Imp (impedance), % change from baseline ([1]; 0.3 µM, 96h): -3±3%
Imp (impedance), % change from baseline ([1]; 1 µM, 2h): 12±7%
Imp (impedance), % change from baseline ([1]; 1 µM, 24h): -9±6%
Imp (impedance), % change from baseline ([1]; 1 µM, 48h): -7±7%
Imp (impedance), % change from baseline ([1]; 1 µM, 72h): -8±7%
Imp (impedance), % change from baseline ([1]; 1 µM, 96h): -5±6%
effect on impedance [1]: did not cause significant changes in the impedance signal
Live Cells (viability), Mean±SD ([2]; 1 µM, 24h): -12.5±1.8 Δ/Δ%
Live Cells (viability), Mean±SD ([2]; 1 µM, 48h): -8.8±2.9 Δ/Δ%
Live Cells (viability), Mean±SD ([2]; 1 µM, 72h): 5.8±5.9 Δ/Δ%
number of live cells ([2]; 3 µM): did not cause a relevant change
Live Cells (viability), Mean±SD ([2]; 3 µM, 72h): -21.4±3.7 Δ/Δ%
Live Cells (viability), Mean±SD ([2]; 3 µM, 24h): -1.8±19.3 Δ/Δ%
Live Cells (viability), Mean±SD ([2]; 3 µM, 48h): -13.1±9.7 Δ/Δ%
number of live cells ([2]; 10 µM, 24, 48, 72 h): significant decrease in the number of live cells
concentration at which decrease in live-cell count occurred, times the median fCmax ([2]; 48 h time point): higher than 300
Caspases 3, 7 (apoptosis activation), Mean±SD ([3]; 1 µM, 24h): 11±8.3 Δ/Δ%
Caspases 3, 7 (apoptosis activation), Mean±SD ([3]; 1 µM, 72h): 70.2±31.9 Δ/Δ%
Caspases 3, 7 (apoptosis activation), Mean±SD ([3]; 10 µM, 48h): 42.9±61.5 Δ/Δ%
Caspases 3, 7 (apoptosis activation), Mean±SD ([3]; 10 µM, 72h): -45±134.8 Δ/Δ%
Annexin V (apoptosis activation), Mean±SD ([4]; 1 µM, 24h): -7.5±2.1 Δ/Δ%
Annexin V (apoptosis activation), Mean±SD ([4]; 1 µM, 48h): -11.9±4.5 Δ/Δ%
Annexin V (apoptosis activation), Mean±SD ([4]; 1 µM, 72h): -0.3±7 Δ/Δ%
Annexin V (apoptosis activation), Mean±SD ([4]; 3 µM, 24h): 7±8.3 Δ/Δ%
Annexin V (apoptosis activation), Mean±SD ([4]; 10 µM, 48h): 14.8±35.2 Δ/Δ%
Annexin V (apoptosis activation), Mean±SD ([4]; 10 µM, 72h): -32.7±15.7 Δ/Δ%
Necrosis, Mean±SD ([5]; 1 µM, 72h): 88.5±23.2 Δ/Δ%
necrosis-driven cell death ([5]; especially at 10 µM): predominant necrosis-driven cell death
